Test system: 186277-243-T-J2-PDC complex spheroids, viability
Assay: Anticancer human tumor 186277-243-T-J2-PDC patient-derived colon adenocarcinoma cell line growth inhibition [RAS]
Conditions: for IC50: curve of first compound; for viability, T/C: stronger effect = lower value
Summary of the method: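 Tumour cells grown as complex spheroids with HUVEC endothelial cells and mesenchymal stem cells, treated with RAS pathway inhibitor combinations. Each agent spans half-log steps from near clinical Cmax, or 10 microM where Cmax is unknown.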
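Note: spheroids exposed to compounds for 7 days before viability read.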

SMILES: CC(Nc1ccc2c(c1)OCCn1cc(N3C(=O)OCC3C(F)F)nc1-2)C(N)=O (stereo unspecified) + C=CC(=O)N1CCN(c2nc(OCC3CCCN3C)nc3c(F)c(-c4nc(N)cc(C)c4C(F)(F)F)c(Cl)cc23)C(C)C1
- IC50 (second compound 0.00316 µM): 0.509 µM
- IC50 (second compound 0.01 µM): 0.46 µM
- IC50 (second compound 0.0316 µM): 0.771 µM
- IC50 (second compound 0.1 µM): 1.02 µM
- IC50 (second compound 0.316 µM): 0.453 µM
- IC50 (second compound 1 µM): 0.344 µM
- viability, T/C (second compound 0.00316 µM, first compound 0.0316 µM): 109%
- viability, T/C (second compound 0.00316 µM, first compound 0.1 µM): 108%
- viability, T/C (second compound 0.00316 µM, first compound 0.316 µM): 58.9%
- viability, T/C (second compound 0.00316 µM, first compound 1 µM): 40.8%
- viability, T/C (second compound 0.00316 µM, first compound 3.16 µM): 34.7%
- viability, T/C (second compound 0.00316 µM, first compound 10 µM): 35%
- viability, T/C (second compound 0.01 µM, first compound 0.0316 µM): 102%
- viability, T/C (second compound 0.01 µM, first compound 0.1 µM): 109%
- viability, T/C (second compound 0.01 µM, first compound 0.316 µM): 57.3%
- viability, T/C (second compound 0.01 µM, first compound 1 µM): 42%
- viability, T/C (second compound 0.01 µM, first compound 3.16 µM): 36.7%
- viability, T/C (second compound 0.01 µM, first compound 10 µM): 25.3%
- viability, T/C (second compound 0.0316 µM, first compound 0.0316 µM): 90.2%
- viability, T/C (second compound 0.0316 µM, first compound 0.1 µM): 105%
- viability, T/C (second compound 0.0316 µM, first compound 0.316 µM): 70.3%
- viability, T/C (second compound 0.0316 µM, first compound 1 µM): 47.1%
- viability, T/C (second compound 0.0316 µM, first compound 3.16 µM): 37.4%
- viability, T/C (second compound 0.0316 µM, first compound 10 µM): 33.5%
- viability, T/C (second compound 0.1 µM, first compound 0.0316 µM): 82.8%
- viability, T/C (second compound 0.1 µM, first compound 0.1 µM): 99.9%
- viability, T/C (second compound 0.1 µM, first compound 0.316 µM): 72.8%
- viability, T/C (second compound 0.1 µM, first compound 1 µM): 50.5%
- viability, T/C (second compound 0.1 µM, first compound 3.16 µM): 42.8%
- viability, T/C (second compound 0.1 µM, first compound 10 µM): 31.2%
- viability, T/C (second compound 0.316 µM, first compound 0.0316 µM): 105%
- viability, T/C (second compound 0.316 µM, first compound 0.1 µM): 103%
- viability, T/C (second compound 0.316 µM, first compound 0.316 µM): 55.3%
- viability, T/C (second compound 0.316 µM, first compound 1 µM): 42.5%
- viability, T/C (second compound 0.316 µM, first compound 3.16 µM): 36.1%
- viability, T/C (second compound 0.316 µM, first compound 10 µM): 33.7%
- viability, T/C (second compound 1 µM, first compound 0.0316 µM): 93.3%
- viability, T/C (second compound 1 µM, first compound 0.1 µM): 98.5%
- viability, T/C (second compound 1 µM, first compound 0.316 µM): 51%
- viability, T/C (second compound 1 µM, first compound 1 µM): 44.1%
- viability, T/C (second compound 1 µM, first compound 3.16 µM): 41.5%
- viability, T/C (second compound 1 µM, first compound 10 µM): 28.3%

SMILES: CC(C)n1nc(-c2ccc3oc(N)nc3c2)c2c(N)ncnc21 + CCn1c(-c2cccnc2C(C)OC)c2c3cc(ccc31)N1CCOC(CC(NC(=O)C(C(C)C)N(C)C(=O)C3(F)CCN(C(=O)C#CC(C)(C)N(C)C)CC3)C(=O)N3CCCC(N3)C(=O)OCC(C)(C)C2)C1
- IC50 (second compound 0.000949 µM): 0.0603 µM
- IC50 (second compound 0.003 µM): 0.076 µM
- IC50 (second compound 0.00949 µM): 0.059 µM
- IC50 (second compound 0.03 µM): 0.0569 µM
- IC50 (second compound 0.0949 µM): 0.0412 µM
- IC50 (second compound 0.3 µM): 0.0249 µM
- viability, T/C (second compound 0.000949 µM, first compound 0.000316 µM): 115%
- viability, T/C (second compound 0.000949 µM, first compound 0.001 µM): 98.1%
- viability, T/C (second compound 0.000949 µM, first compound 0.00316 µM): 98.5%
- viability, T/C (second compound 0.000949 µM, first compound 0.01 µM): 100%
- viability, T/C (second compound 0.000949 µM, first compound 0.0316 µM): 70.6%
- viability, T/C (second compound 0.000949 µM, first compound 0.1 µM): 33.7%
- viability, T/C (second compound 0.003 µM, first compound 0.000316 µM): 88%
- viability, T/C (second compound 0.003 µM, first compound 0.001 µM): 99%
- viability, T/C (second compound 0.003 µM, first compound 0.00316 µM): 97.1%
- viability, T/C (second compound 0.003 µM, first compound 0.01 µM): 92.2%
- viability, T/C (second compound 0.003 µM, first compound 0.0316 µM): 79.6%
- viability, T/C (second compound 0.003 µM, first compound 0.1 µM): 40.5%
- viability, T/C (second compound 0.00949 µM, first compound 0.000316 µM): 90.1%
- viability, T/C (second compound 0.00949 µM, first compound 0.001 µM): 115%
- viability, T/C (second compound 0.00949 µM, first compound 0.00316 µM): 93%
- viability, T/C (second compound 0.00949 µM, first compound 0.01 µM): 94.1%
- viability, T/C (second compound 0.00949 µM, first compound 0.0316 µM): 69.3%
- viability, T/C (second compound 0.00949 µM, first compound 0.1 µM): 33.6%
- viability, T/C (second compound 0.03 µM, first compound 0.000316 µM): 106%
- viability, T/C (second compound 0.03 µM, first compound 0.001 µM): 107%
- viability, T/C (second compound 0.03 µM, first compound 0.00316 µM): 92.7%
- viability, T/C (second compound 0.03 µM, first compound 0.01 µM): 90.2%
- viability, T/C (second compound 0.03 µM, first compound 0.0316 µM): 70.3%
- viability, T/C (second compound 0.03 µM, first compound 0.1 µM): 31.2%
- viability, T/C (second compound 0.0949 µM, first compound 0.000316 µM): 103%
- viability, T/C (second compound 0.0949 µM, first compound 0.001 µM): 98.4%
- viability, T/C (second compound 0.0949 µM, first compound 0.00316 µM): 105%
- viability, T/C (second compound 0.0949 µM, first compound 0.01 µM): 95.4%
- viability, T/C (second compound 0.0949 µM, first compound 0.0316 µM): 55.8%
- viability, T/C (second compound 0.0949 µM, first compound 0.1 µM): 31%
- viability, T/C (second compound 0.3 µM, first compound 0.000316 µM): 101%
- viability, T/C (second compound 0.3 µM, first compound 0.001 µM): 100%
- viability, T/C (second compound 0.3 µM, first compound 0.00316 µM): 91.7%
- viability, T/C (second compound 0.3 µM, first compound 0.01 µM): 72.5%
- viability, T/C (second compound 0.3 µM, first compound 0.0316 µM): 44.3%
- viability, T/C (second compound 0.3 µM, first compound 0.1 µM): 21.3%

SMILES: CC1(C)CCC(Nc2ncc(C(F)(F)F)c(-c3c[nH]c4c(P(C)(C)=O)c(C#N)ccc34)n2)CN1 (stereo unspecified) + C#Cc1c(F)ccc2cc(O)cc(-c3ncc4c(N5CC6CCC(C5)N6)nc(OCC56CCCN5CC(F)C6)nc4c3F)c12
- IC50 (second compound 0.0316 µM): 0.0698 µM
- IC50 (second compound 0.1 µM): 0.0121 µM
- IC50 (second compound 0.316 µM): < 0.000949 µM
- IC50 (second compound 1 µM): < 0.000949 µM
- IC50 (second compound 3.16 µM): < 0.000949 µM
- IC50 (second compound 10 µM): < 0.000949 µM
- viability, T/C (second compound 0.0316 µM, first compound 0.000949 µM): 91.9%
- viability, T/C (second compound 0.0316 µM, first compound 0.003 µM): 80.4%
- viability, T/C (second compound 0.0316 µM, first compound 0.00949 µM): 60.4%
- viability, T/C (second compound 0.0316 µM, first compound 0.03 µM): 55.8%
- viability, T/C (second compound 0.0316 µM, first compound 0.0949 µM): 51.8%
- viability, T/C (second compound 0.0316 µM, first compound 0.3 µM): 40.9%
- viability, T/C (second compound 0.1 µM, first compound 0.000949 µM): 50%
- viability, T/C (second compound 0.1 µM, first compound 0.003 µM): 67.4%
- viability, T/C (second compound 0.1 µM, first compound 0.00949 µM): 55.4%
- viability, T/C (second compound 0.1 µM, first compound 0.03 µM): 29%
- viability, T/C (second compound 0.1 µM, first compound 0.0949 µM): 34.5%
- viability, T/C (second compound 0.1 µM, first compound 0.3 µM): 26.1%
- viability, T/C (second compound 0.316 µM, first compound 0.000949 µM): 27.9%
- viability, T/C (second compound 0.316 µM, first compound 0.003 µM): 29.9%
- viability, T/C (second compound 0.316 µM, first compound 0.00949 µM): 23%
- viability, T/C (second compound 0.316 µM, first compound 0.03 µM): 15.9%
- viability, T/C (second compound 0.316 µM, first compound 0.0949 µM): 15.2%
- viability, T/C (second compound 0.316 µM, first compound 0.3 µM): 17.2%
- viability, T/C (second compound 1 µM, first compound 0.000949 µM): 15.6%
- viability, T/C (second compound 1 µM, first compound 0.003 µM): 16.5%
- viability, T/C (second compound 1 µM, first compound 0.00949 µM): 13%
- viability, T/C (second compound 1 µM, first compound 0.03 µM): 13.9%
- viability, T/C (second compound 1 µM, first compound 0.0949 µM): 12.4%
- viability, T/C (second compound 1 µM, first compound 0.3 µM): 11.5%
- viability, T/C (second compound 3.16 µM, first compound 0.000949 µM): 12.4%
- viability, T/C (second compound 3.16 µM, first compound 0.003 µM): 11.7%
- viability, T/C (second compound 3.16 µM, first compound 0.00949 µM): 11%
- viability, T/C (second compound 3.16 µM, first compound 0.03 µM): 12.5%
- viability, T/C (second compound 3.16 µM, first compound 0.0949 µM): 11.2%
- viability, T/C (second compound 3.16 µM, first compound 0.3 µM): 8.62%
- viability, T/C (second compound 10 µM, first compound 0.000949 µM): 8.95%
- viability, T/C (second compound 10 µM, first compound 0.003 µM): 9.05%
- viability, T/C (second compound 10 µM, first compound 0.00949 µM): 7.62%
- viability, T/C (second compound 10 µM, first compound 0.03 µM): 6.45%
- viability, T/C (second compound 10 µM, first compound 0.0949 µM): 9.73%
- viability, T/C (second compound 10 µM, first compound 0.3 µM): 7.54%

— PubChem BioAssay AID2060908 (Molecular Pharmacology Branch, DTP, NCI, 2025)
